Test results taken from ChEMBL document CHEMBL1201862, “PubChem BioAssay data set” (2004).
Active and inactive are the calls of the source.

Columns and labels:
[1] = biological target: T1, Microphthalmia-associated transcription factor (Homo sapiens, UniProt O75030); experiment: TRPM1 promoter luciferase signal decrease, dose response, MITF inhibitor project, cell-based, SK-MEL-5, cherry-picked, set 3 (AID 493073); format: functional
T1 sequence (O75030 whole entry): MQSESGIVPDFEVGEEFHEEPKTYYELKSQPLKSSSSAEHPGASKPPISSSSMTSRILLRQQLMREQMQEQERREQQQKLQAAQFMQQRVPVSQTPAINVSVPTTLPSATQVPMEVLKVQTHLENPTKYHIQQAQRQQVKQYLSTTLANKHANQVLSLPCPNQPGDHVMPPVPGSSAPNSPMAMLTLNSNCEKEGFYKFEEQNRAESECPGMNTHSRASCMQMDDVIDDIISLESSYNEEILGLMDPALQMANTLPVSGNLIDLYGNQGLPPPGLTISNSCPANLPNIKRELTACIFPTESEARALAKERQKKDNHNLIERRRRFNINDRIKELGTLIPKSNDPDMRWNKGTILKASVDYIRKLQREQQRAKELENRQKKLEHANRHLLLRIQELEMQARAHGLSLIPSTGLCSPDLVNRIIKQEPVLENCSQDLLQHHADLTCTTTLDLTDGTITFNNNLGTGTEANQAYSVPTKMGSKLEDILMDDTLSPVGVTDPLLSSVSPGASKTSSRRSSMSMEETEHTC

BJ [2] = experiment: cytotoxicity toward BJ-TERT-LT-ST fibroblasts, dose response, cell-based, RAS-independent, luminescence (AID 1935); format: functional; settings: Homo sapiens;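 note: BJ fibroblasts immortalized with TERT plus LT and ST oncogenes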
Protein RecA = biological target: T2, Protein RecA (Mycobacterium tuberculosis, UniProt P9WHJ3); experiment: Fluorescence Cell-Free Homogeneous Dose Retest to Identify Inhibitors of RecA-Intein Splicing Activity. [Related pubchem assays (depositor defined):AID2097, AID2223, AID489010, AID492950]; format: functional
T2 sequence (P9WHJ3 whole entry): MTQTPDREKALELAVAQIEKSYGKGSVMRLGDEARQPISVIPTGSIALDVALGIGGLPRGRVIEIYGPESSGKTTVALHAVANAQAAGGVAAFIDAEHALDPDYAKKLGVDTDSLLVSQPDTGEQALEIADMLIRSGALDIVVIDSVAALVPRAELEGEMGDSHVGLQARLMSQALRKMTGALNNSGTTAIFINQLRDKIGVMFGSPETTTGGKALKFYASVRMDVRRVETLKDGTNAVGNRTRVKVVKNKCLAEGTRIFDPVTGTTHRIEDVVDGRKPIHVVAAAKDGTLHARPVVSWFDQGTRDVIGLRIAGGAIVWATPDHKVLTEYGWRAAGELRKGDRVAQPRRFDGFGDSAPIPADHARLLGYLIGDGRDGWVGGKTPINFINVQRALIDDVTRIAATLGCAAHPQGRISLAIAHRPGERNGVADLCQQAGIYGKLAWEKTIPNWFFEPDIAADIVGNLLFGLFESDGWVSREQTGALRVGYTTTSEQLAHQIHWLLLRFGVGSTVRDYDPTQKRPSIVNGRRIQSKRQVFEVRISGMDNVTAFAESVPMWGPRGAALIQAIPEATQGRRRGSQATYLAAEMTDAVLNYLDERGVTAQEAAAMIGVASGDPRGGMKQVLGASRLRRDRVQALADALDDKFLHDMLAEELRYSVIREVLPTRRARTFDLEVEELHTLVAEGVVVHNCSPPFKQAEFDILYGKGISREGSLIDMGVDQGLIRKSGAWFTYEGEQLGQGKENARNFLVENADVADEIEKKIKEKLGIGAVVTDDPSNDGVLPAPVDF

[3] = cytotoxicity toward DRD oncogenic fibroblasts, dose response, cell-based, non-viral oncogenic, luminescence (AID 1934); format: functional; settings: Homo sapiens
BJ [4] = experiment: cells; format: functional, cell-based; settings: Homo sapiens
BJ [5] = experiment: cytotoxicity toward BJ-TERT fibroblasts, dose response, cell-based, RAS-independent, luminescence (AID 1933); format: functional; settings: Homo sapiens
A-375 [6] = experiment: A375 melanoma cell viability reduction, dose response, counter-screen for MITF modulator project, cherry-pick samples, set 2 (AID 540335); format: functional, cell-based; settings: Homo sapiens
[7] = biological target: T3, Replicative DNA helicase DnaB (Mycobacterium tuberculosis, UniProt P9WMR3); experiment: DnaB intein splicing inhibitors, dose response, biochemical, cell-free fluorescence (AID 449749); format: functional
T3 sequence (P9WMR3 whole entry): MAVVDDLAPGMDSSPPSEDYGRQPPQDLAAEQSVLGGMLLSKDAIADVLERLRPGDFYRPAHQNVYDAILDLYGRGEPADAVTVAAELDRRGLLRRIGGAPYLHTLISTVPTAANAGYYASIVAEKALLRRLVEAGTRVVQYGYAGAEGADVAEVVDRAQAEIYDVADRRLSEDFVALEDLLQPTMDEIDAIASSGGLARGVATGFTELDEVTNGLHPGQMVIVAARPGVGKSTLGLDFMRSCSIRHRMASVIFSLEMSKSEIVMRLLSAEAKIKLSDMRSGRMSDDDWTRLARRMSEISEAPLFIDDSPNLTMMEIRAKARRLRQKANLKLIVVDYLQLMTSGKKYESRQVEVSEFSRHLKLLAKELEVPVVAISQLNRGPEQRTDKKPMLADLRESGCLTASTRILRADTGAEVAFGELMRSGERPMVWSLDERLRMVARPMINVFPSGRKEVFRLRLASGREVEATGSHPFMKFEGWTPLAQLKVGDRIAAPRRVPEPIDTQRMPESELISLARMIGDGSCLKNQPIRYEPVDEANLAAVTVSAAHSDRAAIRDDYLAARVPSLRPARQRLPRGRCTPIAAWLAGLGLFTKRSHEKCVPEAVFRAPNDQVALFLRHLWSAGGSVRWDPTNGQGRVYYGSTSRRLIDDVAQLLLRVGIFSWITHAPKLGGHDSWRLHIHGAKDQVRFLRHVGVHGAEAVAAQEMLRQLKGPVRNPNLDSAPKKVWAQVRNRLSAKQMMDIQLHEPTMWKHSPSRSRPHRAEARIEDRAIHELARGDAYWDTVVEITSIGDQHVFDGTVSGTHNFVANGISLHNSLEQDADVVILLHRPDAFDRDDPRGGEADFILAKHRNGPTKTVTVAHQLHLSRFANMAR

A-375 [8] = experiment: MITF: Counter assay: A375 proliferation Measured in Cell-Based System Using Plate Reader - 2084-03_Inhibitor_Dose_DryPowder_Activity. [Related pubchem assays (depositor defined):AID488944]; format: functional; settings: Homo sapiens
Jurkat [9] = experiment: SAR Analysis of small molecule inhibitors of T-cell specific antigen receptor-induced NF-kB activation in a Jurkat cell line using a luminescence assay - Set 2. [Related pubchem assays (depositor defined):AID435003, AID435012, AID465]; format: functional, cell-based; settings: Homo sapiens
HEK293 [10] = experiment: cytotoxicity in HEK293T NF-kB-Luc cells, SAR follow-up, cytotoxicity control for NF-kB activator project, cell-based, resazurin fluorescence (AID 493251); format: functional; settings: Homo sapiens
HEK293 [11] = experiment: SAR Analysis of small molecule inhibitors of T-cell specific antigen receptor-induced NF-kB activation in a HEK-293T cell line using a luminescence assay - Set 2. [Related pubchem assays (depositor defined):AID435003, AID435012, AID489026]; format: functional, cell-based; settings: Homo sapiens
HEK293 [12] = experiment: SAR Analysis of small molecule inhibitors of B-cell specific antigen receptor-induced NF-kB activation in a HEK-293T cell line using a luminescence assay - Set 2. [Related pubchem assays (depositor defined):AID435022, AID435025, AID489021]; format: functional, cell-based; settings: Homo sapiens
Jurkat [13] = experiment: SAR Analysis of small molecule inhibitors of […] specific antigen receptor-induced NF-kB activation in a Jurkat cell line using a luminescence assay - Set 3. [Related pubchem assays (depositor defined):AID435022, AID435025, AID465]; format: functional, cell-based; settings: Homo sapiens
Prothrombin = Prothrombin (Bos taurus, UniProt P00735); experiment: thrombin inhibition, dose response, biochemical, fluorescence polarization, uHTS hits (AID 602369); format: functional
ORF 73 = ORF 73 (Human herpesvirus 8, UniProt O40947); experiment: inhibitors of C-LANA binding to LBS DNA, dose response, biochemical, fluorescence polarization, cherry-picked samples (AID 504725); design: species or system Human gammaherpesvirus 8;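 note: fluorescence polarization of a labeled DNA duplex reporting LANA DNA binding; potency is for inhibitors that block LANA binding to the DNA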
ORF 73, sequence (O40947 whole entry): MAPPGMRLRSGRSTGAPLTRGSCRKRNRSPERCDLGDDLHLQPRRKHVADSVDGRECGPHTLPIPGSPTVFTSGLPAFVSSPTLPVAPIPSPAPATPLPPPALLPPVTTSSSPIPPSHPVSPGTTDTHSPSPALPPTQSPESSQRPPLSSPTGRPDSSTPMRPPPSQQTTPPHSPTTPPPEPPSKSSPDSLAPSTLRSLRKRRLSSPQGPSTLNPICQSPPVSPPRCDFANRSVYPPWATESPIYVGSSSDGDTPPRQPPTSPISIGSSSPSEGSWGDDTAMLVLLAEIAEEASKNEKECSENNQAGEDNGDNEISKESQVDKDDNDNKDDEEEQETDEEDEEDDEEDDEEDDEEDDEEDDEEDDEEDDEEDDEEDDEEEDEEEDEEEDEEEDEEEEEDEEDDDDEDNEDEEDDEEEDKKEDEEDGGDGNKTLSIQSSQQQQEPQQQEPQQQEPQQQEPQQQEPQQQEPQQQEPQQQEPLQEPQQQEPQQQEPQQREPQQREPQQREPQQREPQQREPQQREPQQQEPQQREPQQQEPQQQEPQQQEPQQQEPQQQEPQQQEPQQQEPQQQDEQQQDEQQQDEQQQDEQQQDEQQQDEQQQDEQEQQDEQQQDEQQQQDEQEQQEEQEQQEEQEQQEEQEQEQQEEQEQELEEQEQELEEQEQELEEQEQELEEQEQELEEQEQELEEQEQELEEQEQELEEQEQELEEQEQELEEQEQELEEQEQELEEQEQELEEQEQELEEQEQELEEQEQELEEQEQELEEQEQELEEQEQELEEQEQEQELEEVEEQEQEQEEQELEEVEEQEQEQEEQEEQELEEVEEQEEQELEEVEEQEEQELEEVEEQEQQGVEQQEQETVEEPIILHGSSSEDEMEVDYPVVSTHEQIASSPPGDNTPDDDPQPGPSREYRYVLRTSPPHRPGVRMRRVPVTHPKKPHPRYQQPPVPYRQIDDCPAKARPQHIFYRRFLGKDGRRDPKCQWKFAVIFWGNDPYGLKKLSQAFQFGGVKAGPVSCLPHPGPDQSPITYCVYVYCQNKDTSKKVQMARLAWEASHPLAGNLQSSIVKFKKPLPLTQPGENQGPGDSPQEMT

[14] = biological target: 72 kDa type IV collagenase (Homo sapiens, UniProt P08253); experiment: Dose Response validation of uHTS RPN11 inhibitor hits using a MMP-2 Fluorescence assay.; format: functional
72 kDa type IV collagenase, sequence (P08253 whole entry): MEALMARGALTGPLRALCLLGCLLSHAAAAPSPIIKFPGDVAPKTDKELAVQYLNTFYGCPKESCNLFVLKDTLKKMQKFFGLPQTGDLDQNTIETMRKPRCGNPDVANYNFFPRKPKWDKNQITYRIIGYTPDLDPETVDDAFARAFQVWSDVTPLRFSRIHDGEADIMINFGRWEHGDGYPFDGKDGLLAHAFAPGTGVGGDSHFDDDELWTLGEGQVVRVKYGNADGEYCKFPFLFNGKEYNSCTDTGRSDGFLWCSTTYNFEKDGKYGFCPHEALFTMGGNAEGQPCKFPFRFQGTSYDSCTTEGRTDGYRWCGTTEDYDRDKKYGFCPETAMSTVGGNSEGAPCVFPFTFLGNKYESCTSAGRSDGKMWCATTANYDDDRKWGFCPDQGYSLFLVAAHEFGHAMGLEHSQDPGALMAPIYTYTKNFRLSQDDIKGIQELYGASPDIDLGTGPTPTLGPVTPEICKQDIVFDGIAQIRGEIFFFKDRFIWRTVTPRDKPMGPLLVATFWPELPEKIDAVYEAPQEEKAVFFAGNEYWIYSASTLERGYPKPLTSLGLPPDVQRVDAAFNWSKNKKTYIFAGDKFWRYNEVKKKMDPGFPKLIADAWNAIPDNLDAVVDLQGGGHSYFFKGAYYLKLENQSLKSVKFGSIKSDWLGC

[15] = biological target: T4, Probable nicotinate-nucleotide adenylyltransferase (Staphylococcus aureus (strain N315), UniProt P65502); format: functional, Staphylococcus aureus subsp. aureus N315;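 for IC50 Mean: confirmatory dose-response retesting of NadD inhibitor hits first found in an ultra-high-throughput screen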
T4 sequence (P65502 whole entry): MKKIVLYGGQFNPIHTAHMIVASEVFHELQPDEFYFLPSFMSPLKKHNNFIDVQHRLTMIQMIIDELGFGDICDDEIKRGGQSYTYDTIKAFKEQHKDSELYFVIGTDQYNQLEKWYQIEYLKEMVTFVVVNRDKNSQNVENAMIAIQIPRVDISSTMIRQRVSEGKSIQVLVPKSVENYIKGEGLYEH

[16] = biological target: T5, Apoptotic protease-activating factor 1 (Homo sapiens, UniProt O14727); experiment: activation of Apaf-1 mediated apoptosis – fluorescent, uHTS hits, dose response (AID 588554); format: functional
T5 sequence (O14727 whole entry): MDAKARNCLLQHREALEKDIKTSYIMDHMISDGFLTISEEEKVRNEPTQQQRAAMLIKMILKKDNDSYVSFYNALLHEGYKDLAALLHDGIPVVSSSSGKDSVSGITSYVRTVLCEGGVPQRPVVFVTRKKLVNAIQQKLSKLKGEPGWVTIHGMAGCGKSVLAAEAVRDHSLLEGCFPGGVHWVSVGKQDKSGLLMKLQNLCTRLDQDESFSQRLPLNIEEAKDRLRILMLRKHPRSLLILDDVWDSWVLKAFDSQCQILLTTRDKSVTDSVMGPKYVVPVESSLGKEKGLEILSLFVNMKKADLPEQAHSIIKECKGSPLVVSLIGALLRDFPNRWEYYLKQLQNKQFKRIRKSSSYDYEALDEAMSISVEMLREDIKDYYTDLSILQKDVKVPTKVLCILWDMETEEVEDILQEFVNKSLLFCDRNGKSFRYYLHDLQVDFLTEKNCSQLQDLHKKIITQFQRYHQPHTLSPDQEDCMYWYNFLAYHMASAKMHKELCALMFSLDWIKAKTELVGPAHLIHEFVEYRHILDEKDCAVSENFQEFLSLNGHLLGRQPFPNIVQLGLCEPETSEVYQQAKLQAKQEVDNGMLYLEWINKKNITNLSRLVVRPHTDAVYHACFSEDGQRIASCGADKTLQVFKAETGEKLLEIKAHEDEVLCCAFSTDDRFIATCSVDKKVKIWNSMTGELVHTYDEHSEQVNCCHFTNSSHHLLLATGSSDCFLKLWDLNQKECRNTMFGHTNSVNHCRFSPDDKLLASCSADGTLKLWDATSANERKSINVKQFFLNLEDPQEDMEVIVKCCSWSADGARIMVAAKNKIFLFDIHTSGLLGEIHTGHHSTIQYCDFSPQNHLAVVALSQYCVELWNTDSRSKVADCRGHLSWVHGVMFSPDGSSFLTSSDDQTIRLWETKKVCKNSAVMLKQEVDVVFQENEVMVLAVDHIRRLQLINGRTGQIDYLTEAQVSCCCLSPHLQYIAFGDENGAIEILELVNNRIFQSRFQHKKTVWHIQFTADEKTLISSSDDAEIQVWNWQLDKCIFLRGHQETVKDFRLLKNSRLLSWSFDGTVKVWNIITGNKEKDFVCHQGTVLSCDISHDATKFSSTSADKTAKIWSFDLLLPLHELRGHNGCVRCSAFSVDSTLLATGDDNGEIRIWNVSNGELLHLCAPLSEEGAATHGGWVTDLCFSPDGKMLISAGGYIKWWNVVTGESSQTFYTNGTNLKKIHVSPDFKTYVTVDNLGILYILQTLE

[17] = system: Streptococcus sp. 'group A'; experiment: growth inhibition of control SK(-) GAS strain, dose response, counter-screen for streptokinase expression inhibitor project, luminescence, kanamycin, BacTiterGlo, confirmation (AID 1900); format: functional, organism-based
[18] = biological target: T4, Probable nicotinate-nucleotide adenylyltransferase; format: functional, Staphylococcus aureus subsp. aureus N315; settings: read-out: IC50_Mean
[19] = biological target: 26S proteasome non-ATPase regulatory subunit 14 (Homo sapiens, UniProt O00487); experiment: inhibition of proteasome subunit RPN11 – biochemical, fluorescence polarization, uHTS hits, confirmation (AID 602368); format: functional
26S proteasome non-ATPase regulatory subunit 14, sequence (O00487 whole entry): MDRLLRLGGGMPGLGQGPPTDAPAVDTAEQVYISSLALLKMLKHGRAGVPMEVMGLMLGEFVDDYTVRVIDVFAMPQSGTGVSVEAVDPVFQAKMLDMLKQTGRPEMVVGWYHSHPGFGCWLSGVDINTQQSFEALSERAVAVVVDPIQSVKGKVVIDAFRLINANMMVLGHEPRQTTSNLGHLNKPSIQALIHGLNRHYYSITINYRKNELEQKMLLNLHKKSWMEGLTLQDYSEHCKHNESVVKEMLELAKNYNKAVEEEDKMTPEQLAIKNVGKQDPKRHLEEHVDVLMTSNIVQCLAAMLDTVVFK

Streptococcus = experiment: Group A Streptococcus viability loss, dose response, counter-screen for streptokinase expression inhibitor project, luminescence, BacTiterGlo (AID 1915); format: functional, organism-based;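 note: potency for reduction of bacterial viability or growth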

Cc1c(C#N)c(NC(=O)CCl)n(Cc2ccc(F)cc2)c1C
AC50 [1]: 7.16 µM (active)
EC50 (BJ [2]): 16.7 µM (active)
EC50 (Protein RecA): 4.23 µM (active)
EC50 [3]: 12.1 µM (active)
EC50 (BJ [4]): > 150 µM (inconclusive)
EC50 (BJ [5]): 1.88 µM (inconclusive)
AC50 (A-375 [6]): > 35 µM (active)
AC50 [7]: 15.2 µM (active)
AC50 (A-375 [8]): > 35 µM (active)

NS(=O)(=O)c1ccc(NC(=O)c2ccc([N+](=O)[O-])o2)cc1
IC50 (Jurkat [9]): 17.4 µM (active)
IC50 (HEK293 [10]): 71.3 µM (inactive)
IC50 (HEK293 [11]): 20.5 µM (inactive)

CCCCNC(=O)CSCc1nc(-c2ccc(OCC)cc2)oc1C
IC50 (HEK293 [12]): 38.8 µM (inactive)
IC50 (HEK293 [10]): 75.3 µM (inactive)
IC50 (Jurkat [13]): > 80 µM (inactive)

C=CC1=C(C(=O)O)N2C(=O)[C@@H](NC(=O)/C(=N/OCC(=O)O)c3csc(N)n3)[C@H]2SC1
IC50 (Prothrombin): 68.6 µM (active)
AC50 (ORF 73): 34.8 µM (active)
IC50 [14]: 76.4 nM (active)
IC50 [15]: 500 nM (active)
EC50 [16]: 9.93 µM (active)
EC50 [17]: < 60 nM (active)
IC50 [18]: 4.25 µM (active)
IC50 [19]: 1.04 µM (active)
EC50 (Streptococcus): < 60 nM (active)
